The data set concerns CCRIS mutagenicity, Ames/micronucleus/aberration tests. Nature of the data set: CCRIS mutagenicity studies.
[1] abbreviates: Test System: MOUSE LYMPHOMA, Strain/Indicator: L5178Y (TK+/TK-), Metabolic Activation: NONE, Method: SUSPENSION/PLATE.
Where [2] appears, read: Test System: AMES SALMONELLA TYPHIMURIUM, Strain/Indicator: TA98, Metabolic Activation: HAMSTER, LIVER, S-9, AROCLOR 1254 (10%), Method: PREINCUBATION
Where [3] appears, read: Test System: AMES SALMONELLA TYPHIMURIUM, Strain/Indicator: TA98, Metabolic Activation: NONE, Method: PREINCUBATION
The mark [4] stands for this setting: Test System: AMES SALMONELLA TYPHIMURIUM, Strain/Indicator: TA98, Metabolic Activation: RAT, LIVER, S-9, AROCLOR 1254 (10%), Method: PREINCUBATION
Where [5] appears, read: Test System: AMES SALMONELLA TYPHIMURIUM, Strain/Indicator: TA100, Metabolic Activation: HAMSTER, LIVER, S-9, AROCLOR 1254 (10%), Method: PREINCUBATION
Setting [6] is: Test System: AMES SALMONELLA TYPHIMURIUM, Strain/Indicator: TA100, Metabolic Activation: NONE, Method: PREINCUBATION
The mark [7] stands for this setting: Test System: AMES SALMONELLA TYPHIMURIUM, Strain/Indicator: TA100, Metabolic Activation: RAT, LIVER, S-9, AROCLOR 1254 (10%), Method: PREINCUBATION
The mark [8] stands for this setting: Test System: AMES SALMONELLA TYPHIMURIUM, Strain/Indicator: TA1535, Metabolic Activation: HAMSTER, LIVER, S-9, AROCLOR 1254 (10%), Method: PREINCUBATION
The mark [9] stands for this setting: Test System: AMES SALMONELLA TYPHIMURIUM, Strain/Indicator: TA1535, Metabolic Activation: NONE, Method: PREINCUBATION
Setting [10] is: Test System: AMES SALMONELLA TYPHIMURIUM, Strain/Indicator: TA1535, Metabolic Activation: RAT, LIVER, S-9, AROCLOR 1254 (10%), Method: PREINCUBATION
The mark [11] stands for this setting: Test System: AMES SALMONELLA TYPHIMURIUM, Strain/Indicator: TA1537, Metabolic Activation: HAMSTER, LIVER, S-9, AROCLOR 1254 (10%), Method: PREINCUBATION
Where [12] appears, read: Test System: AMES SALMONELLA TYPHIMURIUM, Strain/Indicator: TA1537, Metabolic Activation: NONE, Method: PREINCUBATION
The mark [13] stands for this setting: Test System: AMES SALMONELLA TYPHIMURIUM, Strain/Indicator: TA1537, Metabolic Activation: RAT, LIVER, S-9, AROCLOR 1254 (10%), Method: PREINCUBATION
The mark [14] stands for this setting: Test System: AMES SALMONELLA TYPHIMURIUM, Strain/Indicator: TA98, Metabolic Activation: NONE, Method: STANDARD PLATE.
[15] abbreviates: Test System: AMES SALMONELLA TYPHIMURIUM, Strain/Indicator: TA100, Metabolic Activation: NONE, Method: STANDARD PLATE.
Where [16] appears, read: Test System: AMES SALMONELLA TYPHIMURIUM, Strain/Indicator: TA1535, Metabolic Activation: NONE, Method: STANDARD PLATE.
Setting [17] is: Test System: AMES SALMONELLA TYPHIMURIUM, Strain/Indicator: TA1537, Metabolic Activation: NONE, Method: STANDARD PLATE.
[18] abbreviates: Test System: MOUSE LYMPHOMA, Strain/Indicator: L5178Y (TK+/TK-), Metabolic Activation: RAT, LIVER, S-9, AROCLOR 1254, Method: SUSPENSION/PLATE.

Consider nine compounds from PubChem BioAssay AID1259407 (Chemical Carcinogenesis Research Information System (CCRIS), 2018).

Molecules are shown by their SMILES. The source made the active and inactive calls. The rule behind the calls is not given here.

In the case of `[N-]=[N+]=N[C@@H](c1ccccc1)[C@H](O)CO`, for the setting “Test System: AMES SALMONELLA TYPHIMURIUM, Strain/Indicator: TA100, Metabolic Activation: RAT, LIVER, S-9, PCB, Method: PREINCUBATION”, the mutagenic call was “active; positive”.

As to `O=C[C@H](O)[C@@H](O)[C@H](O)[C@H](O)CO`, the mutagenic call was “inactive; negative” (Test System: AMES SALMONELLA TYPHIMURIUM, Strain/Indicator: TA98, Metabolic Activation: RAT LIVER S-9, CHLOROPHENE, Method: STANDARD PLATE (COMPOUND HEATED AT 250 DEGREES CELSIUS FOR 20 MIN)) and “active; positive” under setting [1].

In the case of `CC(=O)O.CC(=O)O.O.O.[O]=[U]=[O]`, the mutagenic call runs as follows: (Test System: Chinese hamster ovary, Strain/Indicator: AA8 (HPRT)/6-Thioguanine, Metabolic Activation: None, Method: Standard plate) “inactive; negative”; (Test System: Chinese hamster ovary, Strain/Indicator: EM9 (HPRT)/6-Thioguanine, Metabolic Activation: None, Method: Standard plate) “active; positive, em9 cho cells are xrcc1-deficient”.

With `C[CH2][Pb]([Cl])([CH2]C)[CH2]C`, the mutagenic call under setting [2] was “inactive; negative”; the mutagenic call under setting [3] was “inactive; negative”; the mutagenic call under setting [4] was “inactive; negative”; the mutagenic call under setting [5] was “inactive; negative”; the mutagenic call under setting [6] was “inactive; negative”; the mutagenic call under setting [7] was “inactive; negative”. In addition, the mutagenic call by setting is: under setting [8], “inactive; negative”; under setting [9], “inactive; negative”; under setting [10], “inactive; negative”; under setting [11], “inactive; negative”; under setting [12], “inactive; negative”; under setting [13], “inactive; negative”.

With `Cc1cc(N(CCO)CCO)ccc1N=Nc1ccc(N)cc1`, the mutagenic call was “inactive; negative” (Test System: AMES SALMONELLA TYPHIMURIUM, Strain/Indicator: TA98, Metabolic Activation: HAMSTER, LIVER, S-9, AROCLOR 1254, Method: STANDARD PLATE); “inactive; negative” under setting [14]; “inactive; negative” (Test System: AMES SALMONELLA TYPHIMURIUM, Strain/Indicator: TA98, Metabolic Activation: RAT, LIVER, S-9, AROCLOR 1254, Method: PREINCUBATION); “inactive; negative” (Test System: AMES SALMONELLA TYPHIMURIUM, Strain/Indicator: TA98, Metabolic Activation: RAT, LIVER, S-9, AROCLOR 1254, Method: STANDARD PLATE); “inactive; negative” under setting [15]; “inactive; negative” (Test System: AMES SALMONELLA TYPHIMURIUM, Strain/Indicator: TA100, Metabolic Activation: RAT, LIVER, S-9, AROCLOR 1254, Method: STANDARD PLATE). The mutagenic call under setting [16] was “inactive; negative”; the mutagenic call (Test System: AMES SALMONELLA TYPHIMURIUM, Strain/Indicator: TA1535, Metabolic Activation: RAT, LIVER, S-9, AROCLOR 1254, Method: STANDARD PLATE) was “inactive; negative”; the mutagenic call under setting [17] is “inactive; negative”; the mutagenic call (Test System: AMES SALMONELLA TYPHIMURIUM, Strain/Indicator: TA1537, Metabolic Activation: RAT, LIVER, S-9, AROCLOR 1254, Method: STANDARD PLATE) was “inactive; negative”; the mutagenic call (Test System: AMES SALMONELLA TYPHIMURIUM, Strain/Indicator: TA1538, Metabolic Activation: NONE, Method: STANDARD PLATE) was “inactive; negative”; the mutagenic call (Test System: AMES SALMONELLA TYPHIMURIUM, Strain/Indicator: TA1538, Metabolic Activation: RAT, LIVER, S-9, AROCLOR 1254, Method: STANDARD PLATE) was “inactive; negative”.

In the case of `CNc1snc2ccccc12`, the mutagenic call is “inactive; negative” under setting [14]; “inactive; negative” (Test System: AMES SALMONELLA TYPHIMURIUM, Strain/Indicator: TA98, Metabolic Activation: S-9, Method: STANDARD PLATE); “inactive; negative” under setting [15]; “inactive; negative” (Test System: AMES SALMONELLA TYPHIMURIUM, Strain/Indicator: TA100, Metabolic Activation: S-9, Method: STANDARD PLATE); “inactive; negative” under setting [16]; “inactive; negative” (Test System: AMES SALMONELLA TYPHIMURIUM, Strain/Indicator: TA1535, Metabolic Activation: S-9, Method: STANDARD PLATE). Further, the mutagenic call reads like this: under setting [17], “inactive; negative”; (Test System: AMES SALMONELLA TYPHIMURIUM, Strain/Indicator: TA1537, Metabolic Activation: S-9, Method: STANDARD PLATE) “inactive; negative”.

On to `CC(C)N`, for which the mutagenic call is “inactive; negative” under setting [2]; “inactive; negative” under setting [3]; “inactive; negative” under setting [4]; “inactive; negative” under setting [5]; “inactive; negative” under setting [6]; “inactive; negative” under setting [7]. Also, the mutagenic call is “inactive; negative” under setting [8]; “inactive; negative” under setting [9]; “inactive; negative” under setting [10]; “inactive; negative” under setting [11]; “inactive; negative” under setting [12]; “inactive; negative” under setting [13]. Besides, under “Test System: UDS RODENT HEPATOCYTES, Strain/Indicator: THY INCORP (NON-S-PHASE), Metabolic Activation: NONE, Method: LIQUID SCINTILLATION COUNTING”, the mutagenic call was “inactive; negative”.

As for `c1ccc2scnc2c1`, the mutagenic call under setting [1] is “inactive; negative. reevaluation of results: negative” and the mutagenic call under setting [18] is “inactive; negative. reevaluation of results: negative”.

For `O=c1oc2c(O)c(O)cc3c(=O)oc4c(O)c(O)cc1c4c23`, the mutagenic call reads like this: under setting [3], “inactive; negative”; (Test System: AMES SALMONELLA TYPHIMURIUM, Strain/Indicator: TA98, Metabolic Activation: RAT LIVER S-9, Method: PREINCUBATION) “inactive; negative”; under setting [6], “inactive; negative”; (Test System: AMES SALMONELLA TYPHIMURIUM, Strain/Indicator: TA100, Metabolic Activation: RAT LIVER S-9, Method: PREINCUBATION) “inactive; negative”; (Test System: Ames Salmonella typhimurium, Strain/Indicator: TA102, Metabolic Activation: None, Method: Preincubation) “inactive; negative”; (Test System: Ames Salmonella typhimurium, Strain/Indicator: TA102, Metabolic Activation: Rat, Liver, S-9, Aroclor 1254 in 0.154 M KCl, Method: Preincubation) “inactive; negative”. Besides, the mutagenic call is, setting by setting: (Test System: E. COLI, Strain/Indicator: WP2, Metabolic Activation: RAT, LIVER, S-9, AROCLOR 1254, Method: STANDARD PLATE) “inactive; negative”; under setting [1], “inactive; negative. reevaluation of results: negative”; under setting [18], “inactive; negative. reevaluation of results: inconclusive”.
